The target in test [1] is T1, cellular TDO2 in HEK293-TDO2 cells (Homo sapiens, UniProt P48775).
T1 construct: expressed in transfected cells; host or cells: HEK293 (ATCC), stably transfected
Kind of test: 293-TDO2 cell-based assay (Kyn colorimetric). Conditions: 48 hours of incubation. The essentials:
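Kyn formed from L-Trp was read colorimetrically at 480 nm (TCA deproteinisation, then 2% 4-(dimethylamino)benzaldehyde). Compounds were added to 293-TDO2 cells 4 h post-seeding and left 48 h at 37° C. A four-parameter logistic model gave IC50 values.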

The target in test [2] is T2, IDO1 (Homo sapiens, UniProt P14902). Kind of test: Hela cell-based IDO1 assay. As to conditions: Hela cells. The essentials: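 HeLa cells were seeded at 8000 per well in 96-well plates in phenol red-free DMEM with 10% FBS. After 4 hours, DMSO-diluted compound dilutions were added with IFN-γ (final 100 ng/mL) and 0.4 mM L-Trp, and cells were kept 48 hours at 37 °C, 5% CO2. Supernatant was deproteinised with trichloroacetic acid, and kynurenine was measured at 480 nm after adding 2% 4-(dimethylamino)benzaldehyde. Potency came from four-parameter logistic fits in XLfit.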
T2 sequence (P14902 whole entry): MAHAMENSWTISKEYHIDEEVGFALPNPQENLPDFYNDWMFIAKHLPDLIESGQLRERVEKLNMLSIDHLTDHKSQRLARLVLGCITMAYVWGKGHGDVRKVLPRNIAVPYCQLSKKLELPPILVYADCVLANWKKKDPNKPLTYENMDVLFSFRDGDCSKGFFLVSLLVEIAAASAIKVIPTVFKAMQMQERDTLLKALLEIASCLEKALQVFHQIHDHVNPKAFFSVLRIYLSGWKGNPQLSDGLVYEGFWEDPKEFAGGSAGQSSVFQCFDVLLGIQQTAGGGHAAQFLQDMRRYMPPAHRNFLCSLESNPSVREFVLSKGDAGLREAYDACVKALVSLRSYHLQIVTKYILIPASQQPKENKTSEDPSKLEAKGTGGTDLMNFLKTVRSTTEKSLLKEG

A further test addresses T3, TDO (Homo sapiens, UniProt P48775).
T3 construct: His tag (C); made in house; host or cells: E. coli
Briefly: TDO enzymatic assay. The test is classed as biochemical. As to conditions: read-out: Enzyme IC50 TDO. In outline:
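Recombinant C-terminally His-tagged TDO purified from E. coli (100 nM) was tested with 0.5 mM L-tryptophan (Km concentration). Otherwise the IDO1 enzymatic set-up was used: ascorbic acid, methylene blue, catalase, and potassium phosphate pH 7.5 with BSA, incubated 1.5 hours. N'-formylkynurenine absorbance was read continuously at 321 nm, and activity was taken as the slope. IC50 was calculated from remaining enzyme activity across increasing compound concentrations.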

In test [3] the target is T2, IDO1. Briefly: IDO1 enzymatic assay. Conditions: read-out: Enzyme IC50 IDO1. Further details: His tag (N); made in house; host or cells: E. coli. The class given is biochemical. In outline:
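Assays were run in 50 mM potassium phosphate pH 7.5 with 0.1% BSA for 1.5 hours at 24 °C. Each contained 50 nM E. coli-purified, N-terminally His-tagged IDO1, compound, 1.3 mM D-tryptophan, 5 mM L-ascorbic acid, methylene blue and 0.4 mg/mL catalase. IC50 was calculated from remaining enzyme activity across a rising compound series, with activity taken as the slope of N'-formylkynurenine formation read continuously at 321 nm for 1 hour.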

Molecules are shown by their SMILES. Bounds are passed on as bounds.

Results on 27 compounds are retold here after patent US10882856B2 (BeiGene, Ltd., priority 2017, dated 2021).

What is called EC50 is the concentration giving half of the maximal effect. Low readings indicate a more potent agent, high ones a less potent agent. What is called IC50 is the concentration that inhibits the measured activity by half.

T3 sequence (P48775 whole entry): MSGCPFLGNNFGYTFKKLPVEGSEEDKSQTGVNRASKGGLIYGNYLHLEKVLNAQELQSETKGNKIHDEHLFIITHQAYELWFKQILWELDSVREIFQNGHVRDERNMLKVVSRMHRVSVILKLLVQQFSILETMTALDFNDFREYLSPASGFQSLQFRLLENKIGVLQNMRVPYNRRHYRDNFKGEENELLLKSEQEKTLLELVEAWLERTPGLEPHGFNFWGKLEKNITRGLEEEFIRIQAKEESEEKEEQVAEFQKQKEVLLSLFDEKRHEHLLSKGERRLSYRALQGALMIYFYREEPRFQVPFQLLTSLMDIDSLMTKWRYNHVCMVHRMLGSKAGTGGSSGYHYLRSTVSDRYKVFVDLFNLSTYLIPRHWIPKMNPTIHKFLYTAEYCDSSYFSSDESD
T1 sequence (P48775 whole entry): as above

As for `O[C@H](c1c(C2CC2)ccn2cncc12)[C@H]1CC[C@H](c2ccc(C(F)(F)F)nc2)CC1` (single isomer, unassigned) [Example C120a], the EC50 in test [1] is greater than 10000 nM; on IDO1 [2], 1100 nM. The IC50 on TDO is 7400 nM; on IDO1 [3], 39 nM.

With `O[C@H](c1c(C2CC2)ccn2cncc12)[C@H]1CC[C@H](c2cccc3ccccc32)CC1` (single isomer, unassigned) [Example C121a], the EC50 in test [1] was greater than 10000 nM; at IDO1 [2], 59 nM. For the same compound, the IC50 was found to be 3600 nM at TDO and 39 nM on IDO1 [3].

As to `O[C@H](c1c(C2CC2)ccc2cncn12)[C@H]1CC[C@H](c2ccccc2)CC1` (single isomer, unassigned) [Example D101a], the EC50 in test [1] is greater than 10000 nM; at IDO1 [2], 35 nM. Moreover, the IC50 at TDO amounted to 9200 nM; on IDO1 [3], 14 nM.

As for `COc1ccc([C@H]2CC[C@H]([C@H](O)c3c(C4CC4)ccc4cncn34)CC2)cc1` (single isomer, unassigned) [Example D102a], the EC50 in test [1] was greater than 10000 nM; at IDO1 [2] it was 29 nM. The IC50 at TDO was 5300 nM; at IDO1 [3], 14 nM.

In the case of `O[C@H](c1c(C2CC2)ccc2cncn12)[C@H]1CC[C@H](c2ccc(F)cc2)CC1` (single isomer, unassigned) [Example D104a], the EC50 in test [1] is greater than 10000 nM; on IDO1 [2], 23 nM. Besides, the IC50 worked out at 7500 nM at TDO and 18 nM at IDO1 [3].

`O[C@H](c1c(C2CC2)ccc2cncn12)[C@H]1CC[C@H](c2ccc(OC(F)(F)F)cc2)CC1` (single isomer, unassigned) [Example D105a]: the EC50 in test [1] was greater than 10000 nM; at IDO1 [2] it was 631 nM. In addition, the IC50 was found to be 11000 nM on TDO and 44 nM on IDO1 [3].

Take `Oc1ccc([C@H]2CC[C@H](C(O)c3c(C4CC4)ccc4cncn34)CC2)cc1` (single isomer, unassigned) [Example D106a]: the EC50 was greater than 10000 nM in test [1] and 21 nM on IDO1 [2]. Besides, the IC50 was found to be 4000 nM at TDO and 11 nM on IDO1 [3].

For the compound `N#Cc1ccc([C@H]2CC[C@H]([C@H](O)c3c(C4CC4)ccc4cncn34)CC2)cc1` (single isomer, unassigned) [Example D110a], the EC50 in test [1] is greater than 10000 nM; on IDO1 [2] it was 186 nM. Also, the IC50 turned out to be 6400 nM on TDO and 16 nM at IDO1 [3].

`OC(c1c(C2CC2)ccc2cncn12)[C@H]1CC[C@H](c2ccc(OC3CCOCC3)cc2)CC1` (single isomer, unassigned) [Example D114c]: the values for the EC50 (in test [1]; at IDO1 [2]) were greater than 10000 nM and 67 nM, respectively. Besides, the IC50 was found to be 5600 nM at TDO and 17 nM at IDO1 [3].

On to `CC(C)c1ccc2cncn2c1[C@@H](O)[C@H]1CC[C@H](c2ccc(Cl)cc2)CC1` (single isomer, unassigned) [Example D115a], for which the EC50 in test [1] is greater than 10000 nM; on IDO1 [2] it was 83 nM. Also, the IC50 on TDO was 10000 nM; on IDO1 [3] it was 34 nM.

With `O[C@H](c1c(C2CC2)ccc2cncn12)[C@H]1CC[C@H](c2cccc(Cl)c2)CC1` (single isomer, unassigned) [Example D116a], the EC50 is greater than 10000 nM in test [1] and 43 nM at IDO1 [2]. Also, the figures for the IC50 on TDO and at IDO1 [3] were 9400 nM and 15 nM, respectively.

For the compound `O[C@H](c1c(C2CC2)ccc2cncn12)[C@H]1CC[C@H](c2ccc(Br)cc2)CC1` (single isomer, unassigned) [Example D118a], the values for the EC50 (in test [1]; at IDO1 [2]) were greater than 10000 nM and 306 nM, respectively. For the same compound, the IC50 worked out at 7700 nM at TDO and 25 nM on IDO1 [3].

With `O[C@H](c1c(C2CC2)ccc2cncn12)[C@H]1CC[C@H](c2ccc(-c3ccccc3)cc2)CC1` (single isomer, unassigned) [Example D119a], the EC50 in test [1] is greater than 10000 nM; on IDO1 [2], 344 nM. For the same compound, the IC50 on TDO is 5100 nM; on IDO1 [3] it was 34 nM.

As for `O[C@H](c1c(C2CC2)ccc2cncn12)[C@H]1CC[C@H](c2ccc(Oc3ccccc3)cc2)CC1` (single isomer, unassigned) [Example D120a], the EC50 in test [1] is greater than 10000 nM; on IDO1 [2] it was 370 nM. For the same compound, the IC50 was 6700 nM at TDO and 80 nM at IDO1 [3].

On to `O[C@H](c1c(C2CC2)ccc2cncn12)[C@H]1CC[C@H](c2ccc3sccc3c2)CC1` (single isomer, unassigned) [Example D133a], for which the EC50 in test [1] was greater than 10000 nM; on IDO1 [2] it was 220 nM. Besides, the IC50 on TDO amounted to 6700 nM; at IDO1 [3] it was 21 nM.

`OC(c1c(C2CC2)ccc2cncn12)[C@H]1CC[C@H](c2ccc3ccsc3c2)CC1` (single isomer, unassigned) [Example D134a]: the figures for the EC50 (in test [1]; at IDO1 [2]) were greater than 10000 nM and 135 nM, respectively. The 50% inhibitory concentration (IC50) stood at 6100 nM at TDO and 15 nM at IDO1 [3].

As to `O[C@H](c1c(C2CC2)ccc2cncn12)[C@H]1CC[C@H](c2cccc3ccccc32)CC1` (single isomer, unassigned) [Example D135a], the EC50 in test [1] was greater than 10000 nM; at IDO1 [2], 32 nM. In addition, the results for the IC50 at TDO and on IDO1 [3] were 11000 nM and 25 nM, respectively.

With `O[C@H](c1c(C2CC2)ccc2cncn12)[C@H]1CC[C@H](c2ccc3ccccc3c2)CC1` (single isomer, unassigned) [Example D136a], the EC50 was greater than 10000 nM in test [1] and 254 nM on IDO1 [2]. For the same compound, the values for the IC50 on TDO and at IDO1 [3] were 16000 nM and 21 nM, respectively.

`O[C@H](c1c(C2CC2)ccc2cncn12)[C@H]1CC[C@H](c2ccc(F)c3ccccc32)CC1` (single isomer, unassigned) [Example D137a]: the 50% effective concentration (EC50) in test [1] was greater than 10000 nM; on IDO1 [2], 36 nM. Further, the figures for the IC50 on TDO and at IDO1 [3] were 7400 nM and 19 nM, respectively.

Regarding `O[C@H](c1c(C2CC2)ccc2cncn12)[C@H]1CC[C@H](c2ccnc3ccccc32)CC1` (single isomer, unassigned) [Example D140a], the results for the half-maximal effective concentration (EC50) (in test [1]; on IDO1 [2]) were greater than 10000 nM and 38 nM, respectively. For the same compound, the IC50 at TDO amounted to 11000 nM; at IDO1 [3], 20 nM.

As for `O[C@H](c1c(C2CC2)ccc2cncn12)[C@H]1CC[C@H](c2cccc3ncccc32)CC1` (single isomer, unassigned) [Example D141a], the EC50 was greater than 10000 nM in test [1] and 12 nM at IDO1 [2]. Besides, the figures for the IC50 on TDO and at IDO1 [3] were 6100 nM and 15 nM, respectively.

Consider `O[C@H](c1c(C2CC2)ccc2cncn12)[C@H]1CC[C@H](c2ccc(F)c(F)c2F)CC1` (single isomer, unassigned) [Example D145a], for which the EC50 is greater than 10000 nM in test [1] and 277 nM on IDO1 [2]. Also, the IC50 on TDO was 13000 nM; on IDO1 [3], 19 nM.

On to `O[C@H](c1c(C2CC2)ccc2cncn12)[C@H]1CC[C@H](c2cccc(F)c2)CC1` (single isomer, unassigned) [Example D156a], for which the EC50 in test [1] was greater than 10000 nM; at IDO1 [2] it was 31 nM. The IC50 is 12000 nM on TDO and 20 nM on IDO1 [3].

Regarding `O[C@H](c1cc(Cl)cc2cncn12)[C@H]1CC[C@H](c2ccc(Cl)cc2)CC1` (single isomer, unassigned) [Example E101a], the EC50 in test [1] was greater than 10000 nM; at IDO1 [2] it was 2530 nM. Moreover, the IC50 at TDO is 1700 nM; at IDO1 [3], 27 nM.

As for `O[C@H](c1cc(Cl)cc2cncn12)[C@H]1CC[C@H](c2cccc3ccccc32)CC1` (single isomer, unassigned) [Example E103a], the figures for the EC50 (in test [1]; on IDO1 [2]) were greater than 10000 nM and 777 nM, respectively. In addition, the IC50 at TDO was determined as 1400 nM; on IDO1 [3], 17 nM.

Take `O[C@@H](c1cc(Cl)cc2cncn12)[C@H]1CC[C@H](c2ccc3ccccc3c2)CC1` (single isomer, unassigned) [Example E104b]: the EC50 (in test [1]; on IDO1 [2]) was greater than 10000 nM in each case. Also, the IC50 on TDO came out at 1400 nM; on IDO1 [3] it was 3500 nM.

Turning to `COc1ccc([C@H]2CC[C@H]([C@H](O)c3c(C4CC4)ccn4cncc34)CC2)cc1` [Example C101a, (S)-(7-cyclopropylimidazo[1,5-a]pyridin-8-yl)(4-(4-methoxyphenyl)cyclohexyl)methanol], the EC50 in test [1] is greater than 10000 nM; on IDO1 [2], 110 nM. In addition, the values for the IC50 on TDO and at IDO1 [3] were 4200 nM and 17 nM, respectively.
